Test results taken from ChEMBL document CHEMBL3612065, “Development of N-hydroxybenzamide derivatives with indole-containing cap group as histone deacetylases inhibitors” (Bioorg Med Chem, 2015).
pIC50: −log10 of the molar value.

What was measured:
[1] = Inhibition of Class 1 histone deacetylase isolated from human HeLa cell nuclear extracts using Boc-Lys (acetyl)-AMC as substrate preincubated for 10 mins followed by substrate addition measured after 30 mins by fluorescence assay; format: cell-based
U-937 = assay: Cytotoxicity against human U937 cells assessed as growth inhibition after 48 hrs by MTT assay; format: functional, cell-based; conditions: U-937, 48 h
HEL = assay: Cytotoxicity against human HEL cells assessed as growth inhibition after 48 hrs by MTT assay; format: functional, cell-based
HCT-116 = assay: Cytotoxicity against human HCT116 cells assessed as growth inhibition after 48 hrs by MTT assay; format: functional, cell-based; conditions: HCT-116, 48 h
PC-3 [2] = assay: Cytotoxicity against human PC3 cells assessed as growth inhibition after 48 hrs by MTT assay; format: functional, cell-based; conditions: PC-3, 48 h
HeLa [3] = assay: Ratio of IC50 for Class 1 histone deacetylase in human PC3 cells to IC50 for Class 1 histone deacetylase isolated from human HeLa cell nuclear extracts
PC-3 [4] = assay: Selectivity ratio of IC50 for Class 2a histone deacetylase in human PC3 to IC50 for Class 1 histone deacetylase in human PC3 cells; format: cell-based
PC-3 [5] = assay: Inhibition of Class 2a histone deacetylase in human PC3 cells using Boc-Lys (triflouroacetyl)-AMC as substrate preincubated for 3 hrs followed by substrate addition measured after 3 hrs by fluorescence assay; format: cell-based
PC-3 [6] = assay: Inhibition of Class 1 histone deacetylase in human PC3 cells using Boc-Lys (acetyl)-AMC as substrate preincubated for 3 hrs followed by substrate addition measured after 3 hrs by fluorescence assay; format: cell-based
K562 = assay: Cytotoxicity against human K562 cells assessed as growth inhibition after 48 hrs by MTT assay; format: functional, cell-based; conditions: K562, 48 h
[7] = Cytotoxicity against human U266 cells assessed as growth inhibition after 48 hrs by MTT assay; format: functional, cell-based; conditions: U-266, 48 h
HeLa [8] = assay: Potency index, ratio of SAHA IC50 to compound IC50 for Class 1 histone deacetylase isolated from human HeLa cell nuclear extracts; format: cell-based

O=C(NO)c1ccc(NC(=O)[C@H](Cc2c[nH]c3ccccc23)NC(=O)c2ccc(C(F)(F)F)cc2)cc1
pIC50 [1]: 7.52

COc1ccc(C(=O)N[C@@H](Cc2c[nH]c3ccccc23)C(=O)Nc2ccc(C(=O)NO)cc2)cc1
pIC50 [1]: 8.07

O=C(NO)c1ccc(NC(=O)[C@H](Cc2c[nH]c3ccccc23)NS(=O)(=O)c2ccccc2)cc1
pIC50 [1]: 6.75

O=C(Cc1ccccc1)N[C@@H](Cc1c[nH]c2ccccc12)C(=O)Nc1ccc(C(=O)NO)cc1
pIC50 [1]: 7.32

CCCC(CCC)C(=O)N[C@@H](Cc1c[nH]c2ccccc12)C(=O)Nc1ccc(C(=O)NO)cc1
pIC50 [1]: 6.67

O=C(NO)c1ccc(NC(=O)[C@H](Cc2c[nH]c3ccccc23)NC(=O)c2cccc(Cl)c2)cc1
pIC50 [1]: 7.37

O=C(NO)c1ccc(NC(=O)[C@H](Cc2c[nH]c3ccccc23)NC(=O)c2ccc3ccccc3c2)cc1
pIC50 [1]: 7.57

O=C(CCCc1ccccc1)N[C@@H](Cc1c[nH]c2ccccc12)C(=O)Nc1ccc(C(=O)NO)cc1
pIC50 [1]: 7.01

CN(C)c1ccc(C(=O)N[C@@H](Cc2c[nH]c3ccccc23)C(=O)Nc2ccc(C(=O)NO)cc2)cc1
pIC50 [1]: 8.33

O=C(NO)c1ccc(NC(=O)[C@H](Cc2c[nH]c3ccccc23)NC(=O)c2ccncc2)cc1
pIC50 [1]: 7.00

O=C(NO)c1ccc(NC(=O)[C@H](Cc2c[nH]c3ccccc23)NC(=O)c2ccco2)cc1
pIC50 (U-937): 5.46 | pIC50 (HEL): 5.47 | pIC50 (HCT-116): 5.56 | pIC50 (PC-3 [2]): 5.48 | Ratio IC50 (HeLa [3]): 11 | Ratio IC50 (PC-3 [4]): 2 | pIC50 [1]: 7.51 | pIC50 (PC-3 [5]): 6.18 | pIC50 (PC-3 [6]): 6.48 | pIC50 (K562): 5.34 | pIC50 [7]: 5.42

CC(C)C(=O)N[C@@H](Cc1c[nH]c2ccccc12)C(=O)Nc1ccc(C(=O)NO)cc1
pIC50 [1]: 6.28

Cc1ccc(C(=O)N[C@@H](Cc2c[nH]c3ccccc23)C(=O)Nc2ccc(C(=O)NO)cc2)cc1
pIC50 [1]: 7.89

CC(=O)N[C@@H](Cc1c[nH]c2ccccc12)C(=O)Nc1ccc(C(=O)NO)cc1
pIC50 [1]: 6.37

O=C(/C=C/c1ccc(OC[C@H](Cc2c[nH]c3ccccc23)NC(=O)c2ccc(Cl)cc2)cc1)NO
pIC50 [1]: 8.17

Cc1ccc(S(=O)(=O)N[C@@H](Cc2c[nH]c3ccccc23)C(=O)Nc2ccc(C(=O)NO)cc2)cc1
pIC50 [1]: 6.71

CCS(=O)(=O)N[C@@H](Cc1c[nH]c2ccccc12)C(=O)Nc1ccc(C(=O)NO)cc1
pIC50 [1]: 5.96

O=C(NO)c1ccc(NC(=O)[C@H](Cc2c[nH]c3ccccc23)NC(=O)c2ccc(Cl)cc2)cc1
pIC50 (U-937): 5.96 | pIC50 (HEL): 5.71 | pIC50 (HCT-116): 5.84 | Ratio IC50 (HeLa [8]): 100 | pIC50 (PC-3 [2]): 6.13 | Ratio IC50 (HeLa [3]): 22 | Ratio IC50 (PC-3 [4]): 2 | pIC50 [1]: 8.82 | pIC50 (PC-3 [5]): 7.22 | pIC50 (PC-3 [6]): 7.48 | pIC50 (K562): 5.78 | pIC50 [7]: 6.00

CC(C)(C)OC(=O)N[C@@H](Cc1c[nH]c2ccccc12)C(=O)Nc1ccc(C(=O)NO)cc1
pIC50 [1]: 6.55

O=C(NO)c1ccc(NC(=O)[C@H](Cc2c[nH]c3ccccc23)NC(=O)c2ccc(Cl)cc2Cl)cc1
pIC50 [1]: 7.63

COc1cc(CCC(=O)Nc2ccc(C(=O)NO)cc2)ccc1OCc1cccs1
pIC50 [1]: 6.72

O=C(NO)c1ccc(NC(=O)[C@H](Cc2c[nH]c3ccccc23)NC(=O)c2ccc(Br)cc2)cc1
pIC50 [1]: 8.43

CC(C)=CC(=O)N[C@@H](Cc1c[nH]c2ccccc12)C(=O)Nc1ccc(C(=O)NO)cc1
pIC50 [1]: 6.86

CC(C)(C)OC(=O)N[C@H](C(=O)Nc1ccc(C(=O)NO)cc1)c1ccccc1
pIC50 [1]: 6.91

O=C(NO)c1ccc(NC(=O)[C@H](Cc2c[nH]c3ccccc23)NC(=O)c2cc(Cl)cc(Cl)c2)cc1
pIC50 [1]: 7.39

O=C(CCc1ccccc1)N[C@@H](Cc1c[nH]c2ccccc12)C(=O)Nc1ccc(C(=O)NO)cc1
pIC50 [1]: 7.22

O=C(NO)c1ccc(NC(=O)[C@H](Cc2c[nH]c3ccccc23)NC(=O)c2ccc(F)cc2)cc1
pIC50 [1]: 8.62

O=C(NO)c1ccc(NC(=O)[C@H](Cc2c[nH]c3ccccc23)NC(=O)c2ccccc2Cl)cc1
pIC50 [1]: 6.80

O=C(NO)c1ccc(NC(=O)[C@H](Cc2c[nH]c3ccccc23)NC(=O)c2ccccc2)cc1
pIC50 [1]: 7.62

CCC(CC)C(=O)N[C@@H](Cc1c[nH]c2ccccc12)C(=O)Nc1ccc(C(=O)NO)cc1
pIC50 [1]: 6.48
